Targets include PAK1 (Homo sapiens, UniProt Q13153); PAK2 (Homo sapiens, UniProt Q13177); PAK6 (Homo sapiens, UniProt Q9NQU5); PAK4 (Homo sapiens, UniProt O96013); PAK7 (Homo sapiens, UniProt Q9P286).
Common to all, as to assay: Competitive binding (test PAK inhibitor affinity) assay, phage-displayed kinase vs immobilized staurosporine

Read-outs that look alike come from different tables or passages of the source.

The results in this text go back to patent US20120283296A1, “PYRROLOPYRAZOLES FOR TREATING CNS DISORDERS” (aFRAXis, Inc., priority 2009, published 2012).

In general, Kd refers to a measure of binding affinity in units of concentration.

Chain of PAK2 (Q13177 whole entry): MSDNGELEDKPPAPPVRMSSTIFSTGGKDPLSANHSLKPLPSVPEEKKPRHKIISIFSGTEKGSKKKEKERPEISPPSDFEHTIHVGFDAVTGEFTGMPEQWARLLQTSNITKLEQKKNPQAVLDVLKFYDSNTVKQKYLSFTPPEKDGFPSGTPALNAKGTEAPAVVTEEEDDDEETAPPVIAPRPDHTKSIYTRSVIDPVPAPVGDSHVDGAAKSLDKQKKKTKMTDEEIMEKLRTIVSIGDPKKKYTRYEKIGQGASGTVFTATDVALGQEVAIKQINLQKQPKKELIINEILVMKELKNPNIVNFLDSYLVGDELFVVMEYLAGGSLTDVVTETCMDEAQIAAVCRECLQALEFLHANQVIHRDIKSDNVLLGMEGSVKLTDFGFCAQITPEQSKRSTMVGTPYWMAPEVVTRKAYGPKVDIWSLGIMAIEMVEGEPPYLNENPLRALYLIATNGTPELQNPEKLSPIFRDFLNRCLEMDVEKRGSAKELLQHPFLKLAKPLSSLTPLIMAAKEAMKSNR
Chain of PAK1 (Q13153 whole entry): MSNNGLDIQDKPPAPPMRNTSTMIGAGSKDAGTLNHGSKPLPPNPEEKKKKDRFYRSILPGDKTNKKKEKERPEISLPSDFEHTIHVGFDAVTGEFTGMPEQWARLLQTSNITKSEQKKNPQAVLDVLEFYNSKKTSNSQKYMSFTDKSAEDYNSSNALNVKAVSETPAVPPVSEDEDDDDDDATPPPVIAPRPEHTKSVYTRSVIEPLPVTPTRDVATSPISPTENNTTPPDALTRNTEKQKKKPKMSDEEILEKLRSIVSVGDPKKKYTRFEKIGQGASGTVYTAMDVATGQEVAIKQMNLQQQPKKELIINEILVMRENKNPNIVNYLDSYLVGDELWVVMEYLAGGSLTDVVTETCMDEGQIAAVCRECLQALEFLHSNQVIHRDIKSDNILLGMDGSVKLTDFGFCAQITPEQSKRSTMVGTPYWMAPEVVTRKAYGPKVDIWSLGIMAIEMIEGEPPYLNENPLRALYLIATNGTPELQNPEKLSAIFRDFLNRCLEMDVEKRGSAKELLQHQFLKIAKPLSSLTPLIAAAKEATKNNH
Chain of PAK6 (Q9NQU5 whole entry): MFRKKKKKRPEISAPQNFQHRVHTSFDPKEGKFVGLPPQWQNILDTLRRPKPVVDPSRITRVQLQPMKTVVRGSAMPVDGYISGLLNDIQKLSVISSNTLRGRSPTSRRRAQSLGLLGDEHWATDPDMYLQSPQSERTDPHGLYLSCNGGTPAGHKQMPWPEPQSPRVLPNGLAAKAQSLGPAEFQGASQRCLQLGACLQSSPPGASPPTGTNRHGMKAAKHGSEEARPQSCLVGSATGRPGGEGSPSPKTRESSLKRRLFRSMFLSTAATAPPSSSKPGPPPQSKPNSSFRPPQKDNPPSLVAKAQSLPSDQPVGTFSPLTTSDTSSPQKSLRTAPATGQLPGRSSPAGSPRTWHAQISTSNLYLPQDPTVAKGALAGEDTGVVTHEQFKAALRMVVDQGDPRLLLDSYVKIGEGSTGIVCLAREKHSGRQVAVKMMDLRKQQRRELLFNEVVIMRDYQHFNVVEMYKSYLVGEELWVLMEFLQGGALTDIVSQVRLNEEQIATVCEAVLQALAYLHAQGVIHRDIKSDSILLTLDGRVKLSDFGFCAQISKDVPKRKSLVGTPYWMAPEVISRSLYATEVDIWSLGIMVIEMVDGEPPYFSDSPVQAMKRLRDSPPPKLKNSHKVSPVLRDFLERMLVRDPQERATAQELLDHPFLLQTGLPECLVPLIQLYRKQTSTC
Chain of PAK7 (Q9P286 whole entry): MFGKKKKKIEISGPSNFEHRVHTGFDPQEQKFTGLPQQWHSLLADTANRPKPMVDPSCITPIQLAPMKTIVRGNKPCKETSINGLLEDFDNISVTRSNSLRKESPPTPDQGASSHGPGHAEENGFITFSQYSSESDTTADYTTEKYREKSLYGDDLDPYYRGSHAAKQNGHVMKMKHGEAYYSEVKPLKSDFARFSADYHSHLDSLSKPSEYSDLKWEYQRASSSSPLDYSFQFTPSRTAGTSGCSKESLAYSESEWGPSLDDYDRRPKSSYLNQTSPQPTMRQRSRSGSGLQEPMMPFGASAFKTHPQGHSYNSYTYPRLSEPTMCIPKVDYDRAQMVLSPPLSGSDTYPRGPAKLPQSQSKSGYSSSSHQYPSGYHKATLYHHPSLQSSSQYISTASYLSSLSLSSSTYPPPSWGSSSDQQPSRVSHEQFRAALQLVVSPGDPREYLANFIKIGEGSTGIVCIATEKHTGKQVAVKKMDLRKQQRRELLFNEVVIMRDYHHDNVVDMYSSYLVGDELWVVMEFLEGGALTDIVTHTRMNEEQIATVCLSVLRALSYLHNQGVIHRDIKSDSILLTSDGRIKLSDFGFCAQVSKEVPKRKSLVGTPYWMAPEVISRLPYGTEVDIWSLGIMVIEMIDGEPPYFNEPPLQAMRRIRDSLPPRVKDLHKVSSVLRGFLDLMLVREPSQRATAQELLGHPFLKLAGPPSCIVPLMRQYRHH
Chain of PAK4 (O96013 whole entry): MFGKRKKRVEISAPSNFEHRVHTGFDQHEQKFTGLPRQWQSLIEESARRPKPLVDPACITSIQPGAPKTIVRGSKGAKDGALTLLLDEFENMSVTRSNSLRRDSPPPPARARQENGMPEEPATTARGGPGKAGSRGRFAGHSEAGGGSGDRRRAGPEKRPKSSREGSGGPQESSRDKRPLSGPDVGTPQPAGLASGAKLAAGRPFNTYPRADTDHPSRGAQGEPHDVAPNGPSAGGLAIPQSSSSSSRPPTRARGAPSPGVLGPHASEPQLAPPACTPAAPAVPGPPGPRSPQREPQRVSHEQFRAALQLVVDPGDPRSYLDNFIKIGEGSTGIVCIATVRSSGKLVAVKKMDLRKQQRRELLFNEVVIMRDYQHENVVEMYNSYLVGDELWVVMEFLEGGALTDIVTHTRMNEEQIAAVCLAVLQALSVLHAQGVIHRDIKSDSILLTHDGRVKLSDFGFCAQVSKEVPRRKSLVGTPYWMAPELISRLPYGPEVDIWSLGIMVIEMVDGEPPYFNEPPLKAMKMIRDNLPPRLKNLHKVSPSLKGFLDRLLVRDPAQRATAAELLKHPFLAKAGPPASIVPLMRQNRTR

Turning to `Nc1nc(Nc2ccc(S(N)(=O)=O)cc2)nn1C(=O)c1c(F)cccc1F` [JNJ-7706621], the Kd was not below 10 µM at PAK1, not below 10 µM on PAK2 and less than 5 µM on PAK6.
For the compound `CCOc1cc2ncc(C#N)c(Nc3ccc(F)c(Cl)c3)c2cc1NC(=O)/C=C/CN(C)C` [EKB-569], the Kd was not below 10 µM on PAK4; less than 5 µM on PAK1 (read-out: Kd); not below 10 µM at PAK7; not below 10 µM at PAK2 (read-out: Kd); not below 10 µM at PAK6.
